Values quoted from earlier work as cited in patent US20050176650A1, “Stable parenteral formulation of levomepromazine and a method for stabilizing said formulation” (Xanodyne Pharmacal, Inc., priority 2004, published 2005).

Tests used:
[1] = system: traumatic shock; conditions: rats; prior art description
[2] = prior art description
[3] = rats; prior art description

Compound: COc1ccc2c(c1)N(C[C@H](C)CN(C)C)c1ccccc1S2 [Levomepromazine, (−)-(2R)-3-(2-methoxy-10H-phenothiazin-10-yl)-N,N,2-trimethylpropan-1-amine]
- protection against traumatic shock [1]: readily protect against traumatic shock
- hypothermic action, potency relative to chlorpromazine [2]: three times more potent than that of chlorpromazine
- local anesthesia following parasciatic injections [3]: produce deep local anesthesia
